According to patent US7067519B2 (priority 2002, dated 2006):

Assays:
[1] = target: T1, human orexin-2 receptor (Homo sapiens, UniProt O43614); experiment: Intracellular calcium measurement (FLIPR), OX2 receptor antagonistic activity; format: cell-based; conditions: CHO cells expressing human orexin-2 receptor, agonist 10 nM human orexin-A, fluo-3 calcium
T1 construct: expressed in transfected cells; host or cells: CHO cells (G418 selection)
T1 sequence (O43614 1-444): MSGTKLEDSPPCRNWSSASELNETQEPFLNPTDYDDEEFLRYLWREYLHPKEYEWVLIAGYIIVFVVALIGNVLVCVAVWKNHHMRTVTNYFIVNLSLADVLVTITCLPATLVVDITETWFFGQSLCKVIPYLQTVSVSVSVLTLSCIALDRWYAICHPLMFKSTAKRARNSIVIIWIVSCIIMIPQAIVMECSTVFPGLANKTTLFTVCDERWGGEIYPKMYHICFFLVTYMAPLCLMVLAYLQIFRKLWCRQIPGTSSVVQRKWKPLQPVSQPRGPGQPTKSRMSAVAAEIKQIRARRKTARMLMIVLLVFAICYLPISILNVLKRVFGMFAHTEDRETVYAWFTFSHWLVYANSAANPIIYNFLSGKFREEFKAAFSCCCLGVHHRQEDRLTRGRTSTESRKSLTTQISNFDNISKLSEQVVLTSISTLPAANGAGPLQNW
Experimental: (§1) Determination of OX1 and OX2 Receptor Antagonistic Activities
(§2) The OX1 and OX2 receptor antagonistic activity of the compounds of formula (I) was determined in accordance with the following experimental method.
(§3) Intracellular Calcium Measurements
(§4) Chinese hamster ovary (CHO) cells expressing the human orexin-1 receptor or the human orexin-2 receptor, were grown in culture medium (Ham F-12 with L-Glutamine) containing 300 μg/ml G418, 100 U/ml penicillin, 100 μg/ml streptomycin and 10% inactivated foetal calf serum (FCS).
(§5) The cells were seeded at 80'000 cells/well into 96-well black clear bottom sterile plates (Costar) which had been precoated with 1% gelatine in Hanks' Balanced Salt Solution (HBSS). All reagents were from Gibco BRL.
(§6) The seeded plates were incubated overnight at 37° C. in 5% CO2.
(§7) Human orexin-A as an agonist was prepared as 1 mM stock solution in methanol:water (1:1), diluted in HBSS containing 0.1% bovine serum albumin (BSA) and 2 mM HEPES for use in the assay at a final concentration of 10 nM.
(§8) Antagonists were prepared as 10 mM stock solution in DMSO, then diluted in 96-well plates, first in DMSO, then in HBSS containing 0.1% bovine serum albumin (BSA) and 2 mM HEPES.
(§9) On the day of the assay, 100 μl of loading medium (HBSS containing 1% FCS, 2 mM HEPES, 5 mM probenecid (Sigma) and 3 μM of the fluorescent calcium indicator fluo-3 AM (1 mM stock solution in DMSO with 10% pluronic acid) (Molecular Probes) was added to each well.
(§10) The 96-well plates were incubated for 60 min at 37° C. in 5% CO2. The loading solution was then aspirated and cells were washed 3 times with 200 μl HBSS containing 2.5 mM probenecid, 0.1% BSA, 2 mM HEPES. 100 μl of that same buffer was left in each well. Within the Fluorescent Imaging Plate Reader (FLIPR, Molecular Devices), antagonists were added to the plate in a volume of 50 μl, incubated for 20 min and finally 100 μl of
(§11) agonist was added. Fluorescence was measured for each well at 1 second intervals, and the height of each fluorescence peak was compared to the height of the fluorescence peak induced by 10 nM orexin-A with buffer in place of antagonist. For each antagonist, IC50 value (the concentration of compound needed to inhibit 50% of the agonistic response) was determined.

[2] = target: T2, human orexin-1 receptor (Homo sapiens, UniProt O43613); experiment: Intracellular calcium measurement (FLIPR), OX1 receptor antagonistic activity; format: cell-based; conditions: CHO cells expressing human orexin-1 receptor, agonist 10 nM human orexin-A, fluo-3 calcium
T2 construct: expressed in transfected cells; host or cells: CHO cells (G418 selection)
T2 sequence (O43613 1-425): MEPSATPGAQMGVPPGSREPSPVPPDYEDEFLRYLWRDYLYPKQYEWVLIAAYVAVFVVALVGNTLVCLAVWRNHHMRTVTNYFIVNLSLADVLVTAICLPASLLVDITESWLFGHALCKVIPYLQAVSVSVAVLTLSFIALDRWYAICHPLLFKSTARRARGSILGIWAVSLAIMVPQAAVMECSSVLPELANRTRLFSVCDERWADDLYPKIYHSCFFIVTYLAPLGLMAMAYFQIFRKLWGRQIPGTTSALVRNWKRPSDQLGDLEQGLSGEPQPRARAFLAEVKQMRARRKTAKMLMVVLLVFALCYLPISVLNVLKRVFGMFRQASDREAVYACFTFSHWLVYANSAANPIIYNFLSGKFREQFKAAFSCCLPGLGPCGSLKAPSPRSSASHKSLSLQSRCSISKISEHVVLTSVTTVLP
Experimental: as §1, §2, §3, §4, §5, §6, §7, §8, §9, §10, §11

Row | IC50 [1] [nM] | IC50 [2] [nM] | Compound
1 | 16 | 12 | C[C@@H](c1ccccc1)N(C(=O)Nc1ccccc1OC(F)(F)F)C1CCn2c1nc1cccc(C(F)(F)F)c1c2=O (stereo partly drawn) [Example 49, 1-(9-Oxo-8-trifluoromethyl-1,2,3,9-tetrahydro-pyrrolo[2,1-b]quinazolin-3-yl)-1-((S)-1-phenyl-ethyl)-3-(2-trifluoromethoxy-phenyl)-urea]
2 | 27 | 67 | CCCc1ccccc1NC(=O)N(C(C)c1ccccc1)C1CCn2c1nc1cccc(Cl)c1c2=O (stereo not shown) [Example 44, 1-(8-Chloro-9-oxo-1,2,3,9-tetrahydro-pyrrolo[2,1-b]quinazolin-3-yl)-1-(1-phenyl-ethyl)-3-(2-n-propyl-phenyl)-urea]
3 | 18 | 127 | CCCc1ccccc1NC(=O)N(C(C)c1ccccc1)C1CCCn2c1nc1cc(F)ccc1c2=O (stereo not shown) [Example 33, 1-(3-Fluoro-11-oxo-6,8,9,11-tetrahydro-7H-pyrido[2,1-b]quinazolin-6-yl)-1-(1-phenyl-ethyl)-3-(2-n-propyl-phenyl)-urea]
4 | 27 | 2400 | CC(c1ccccc1)N(C(=O)Nc1ccccc1OC(F)(F)F)C1CCn2c1nc1cc(F)ccc1c2=O (stereo not shown) [Example 7, 1-(6-Fluoro-9-oxo-1,2,3,9-tetrahydro-pyrrolo[2,1-b]quinazolin-3-yl)-1-(1-phenyl-ethyl)-3-(2-trifluoromethoxy-phenyl)-urea]
5 | 14 | 52 | CC(c1ccccc1)N(C(=O)Nc1ccccc1-c1ccccc1)C1CCn2c1nc1cccc(Cl)c1c2=O (stereo not shown) [Example 41, 3-Biphenyl-2-yl-1-(8-chloro-9-oxo-1,2,3,9-tetrahydro-pyrrolo[2,1-b]quinazolin-3-yl)-1-(1-phenyl-ethyl)-urea]
6 | 79 | 115 | CCOc1ccccc1NC(=O)N(C(C)c1ccccc1)C1CCn2c1nc1ccccc1c2=O (stereo not shown) [Example 3, 3-(2-Ethoxy-phenyl)-1-(9-oxo-1,2,3,9-tetrahydro-pyrrolo[2,1-b]quinazolin-3-yl)-1-(1-phenyl-ethyl)-urea]
7 | 18 | 14 | CCCc1ccccc1NC(=O)N(C1CCn2c1nc1cccc(C(F)(F)F)c1c2=O)[C@@H](C)c1ccccc1 (stereo partly drawn) [Example 50, 1-(9-Oxo-8-trifluoromethyl-1,2,3,9-tetrahydro-pyrrolo[2,1-b]quinazolin-3-yl)-1-((S)-1-phenyl-ethyl)-3-(2-n-propyl-phenyl)-urea]
8 | 17 | 153 | CCCc1ccccc1NC(=O)N(C(C)c1ccccc1)C1CCCn2c1nc1cc(F)c(F)cc1c2=O (stereo not shown) [Example 28, 1-(2,3-Difluoro-11-oxo-6,8,9,11-tetrahydro-7H-pyrido[2,1-b]quinazolin-6-yl)-1-(1-phenyl-ethyl)-3-(2-n-propyl-phenyl)-urea]
9 | 21 | 28 | CCc1ccccc1NC(=O)N(C1CCn2c1nc1cccc(C(F)(F)F)c1c2=O)[C@@H](C)c1ccccc1 (stereo partly drawn) [Example 51, 3-(2-Ethyl-phenyl)-1-(9-oxo-8-trifluoromethyl-1,2,3,9-tetrahydro-pyrrolo[2,1-b]quinazolin-3-yl)-1-((S)-1-phenyl-ethyl)-urea]
10 | 16 | 261 | CCc1ccccc1NC(=O)N(C(C)c1ccccc1)C1CCCn2c1nc1cc(F)c(F)cc1c2=O (stereo not shown) [Example 30, 1-(2,3-Difluoro-11-oxo-6,8,9,11-tetrahydro-7H-pyrido[2,1-b]quinazolin-6-yl)-3-(2-ethyl-phenyl)-1-(1-phenyl-ethyl)-urea]

Row | Compound | IC50 [1] [nM] | IC50 [2] [nM]
11 | CC(c1ccccc1)N(C(=O)Nc1ccccc1OC(F)(F)F)C1CCn2c1nc1cccc(Cl)c1c2=O (stereo not shown) [Example 40] | 14 | 37
